Test results taken from US9593305B2, “Differentiation of pluripotent stem cells” (Janssen Biotech, Inc., priority 2008, dated 2017).

Assays:
[1] = test system: H1 human embryonic stem cells; test: Analog screening with GDF-8 and growth factor/agonist pool (Example 8, Tables 7 and 8); format: cell-based
Protocol: Briefly, clusters of H1 human embryonic stem cells were grown on reduced growth factor […]™ (Invitrogen; Cat #356231)-coated tissue culture plastic. Cells were passaged using collagenase (Invitrogen; Cat #17104-019) treatment and gentle scraping, washed to remove residual enzyme, and plated with even dispersal at a ratio of 1:1 (surface area) on reduced growth factor […]™-coated 96-well black plates (Packard ViewPlates; PerkinElmer; Cat #6005182) using volumes of 100 μl/well. Cells were allowed to attach as clusters and then recover log phase growth over a 1 to 3 day period, feeding daily with MEF conditioned medium supplemented with 8 ng/ml bFGF (R&D Systems; Cat #233-FB). Plates were maintained at 37° C., 5% CO2 in a humidified box throughout the duration of assay. Growth factors purchased from R&D Systems were EGF (Cat #236-EG), FGF4 (Cat #235-F4), PDGF-A (Cat #221-AA), PDGF-D (Cat #1159-SB), PDGF-A/B (Cat #222-AB). […] Screening was conducted using a library of compounds that were made available as 5 mM stocks in 96-well plate format, solubilized in 100% DMSO (Sigma; Cat #D2650) and stored at −80° C. The compounds were further diluted to an intermediate concentration of 0.2 mM in 50 mM HEPES (Invitrogen; Cat #15630-080), 20% DMSO and stored at 4° C. Test conditions were performed in single wells, feeding on alternate days over a four-day assay period. Primary screening assays were initiated by aspirating culture medium from each well followed by three washes in PBS (Invitrogen; Cat #14190) to remove residual growth factors and serum. On the first day of assay, test volumes of 200 μl per well were added back containing DMEM:F12 base medium (Invitrogen; Cat #11330-032) supplemented with 0.5% FCS (HyClone; […] Cat #1324-WN) plus 2.5 μM compound. All remaining growth factors were tested at a final assay concentration of 50 ng/ml (EGF, FGF4, PDGF-A, PDGF-A/B, VEGF) with the exception of GDF-8 tested at 25 ng/ml. […] Cat #120-14). […] All remaining growth factors were tested at a final assay concentration of 50 ng/ml (EGF, FGF4, PDGF-A, PDGF-A/B, VEGF) with the exception of GDF-8 tested at 25 ng/ml. […] Cat #120-14). Negative control samples contained DMEM:F12 base medium supplemented with 2% FCS. […] At the conclusion of four-days of culture, assay plates were washed twice with PBS (Invitrogen; Cat #14190), fixed with 4% paraformaldehyde (Alexis Biochemical; Cat #ALX-350-011) at room temperature for 20 minutes, then washed three times with PBS and permeabilized with 0.5% Triton X-100 (Sigma; Cat #T8760-2) for 20 minutes at room temperature. Cells were washed again three times with PBS and blocked with 4% chicken serum (Invitrogen; Cat #16110082) in PBS for 30 minutes at room temperature. Primary antibody (goat anti-human SOX17; R&D Systems; Cat #AF1924) was diluted 1:100 in 4% chicken serum and added to each well for one hour at room temperature. Alexa Fluor 488 conjugated secondary antibody (chicken anti-goat IgG; Molecular Probes; Cat #AZ1467) was diluted 1:200 in PBS and added to each sample well after washing three times with PBS. To counterstain nuclei, 4 μg/ml Hoechst 33342 (Invitrogen; Cat #H3570) was added for ten minutes at room temperature. Plates were washed once with PBS and left in 100 μl/well PBS for imaging. Imaging was performed using an IN Cell Analyzer 1000 (GE Healthcare) utilizing the 51008bs dichroic for cells stained with Hoechst 33342 and Alexa Fluor 488. Exposure times were optimized from positive control wells and from untreated negative control wells stained with secondary antibody alone. Images from 15 fields per well were acquired to compensate for any cell loss during the bioassay and subsequent staining procedures. […] Segmentation for the nuclei was determined based on gray-scale levels (baseline range 100-300) and nuclear size. Averages and standard deviations were calculated for each replicate data set. […]

[2] = test system: H1 human embryonic stem cells; test: Analogue screening in combination with only GDF-8, SOX17 (Example 21, Tables 18 and 19); format: cell-based; set-up: Sox17 Expression: % of positive control / Cell Number: % of positive control: tested at 2.5 µM; settings: compound in combination with GDF8; for Cell Number: Average Total Cell Number / Sox17 Expression: Average Total Intensity: four assay plates; for Cell Number: % of positive control / Sox17 Expression: % of positive control: relative to Activin A/Wnt3a of the same plate
Protocol: Briefly, clusters of H1 human embryonic stem cells were grown on reduced growth factor Matrigel™ (Invitrogen; Cat #356231)-coated tissue culture plastic. Cells were passaged using collagenase (Invitrogen; Cat #17104-019) treatment and gentle scraping, washed to remove residual enzyme, and plated with even dispersal at a ratio of 1:1 (surface area) on reduced growth factor […]™ (BD Biosciences; Cat #356231)-coated 96-well black plates (Packard ViewPlates; PerkinElmer; Cat #6005182) using volumes of 100 μl/well. Cells were allowed to attach and then recover log phase growth over a 1 to 3 day time period, feeding daily with MEF conditioned medium supplemented with 8 ng/ml bFGF (R&D Systems; Cat #233-FB). Plates were maintained at 37° C., 5% CO2 in a humidified box throughout the duration of assay.
Screening was conducted using a library of the analogue compounds. Compounds from this library were made available as 5 mM stocks in 96-well plate format, solubilized in 100% DMSO (Sigma; Cat #D2650) and stored at −80° C. The library compounds were further diluted to an intermediate concentration of 0.2 mM in 50 mM HEPES (Invitrogen; Cat #15630-080), 20% DMSO and stored at 4° C. Test conditions were performed in triplicate, feeding on alternating days over a four-day assay period. Assays were initiated by aspirating culture medium from each well followed by three washes in PBS (Invitrogen; Cat #14190) to remove residual growth factors. On the first day of assay, test volumes of 200 μl per well were added to each well using DMEM:F12 base medium (Invitrogen; Cat #11330-032) supplemented with 0.5% FCS (HyClone; Cat #SH30070.03) and 200 ng/ml GDF-8 (R&D Systems, Cat #788-G8) plus 2.5 μM compound. On the third day of assay, test volumes of 100 μl per well were added to each well using DMEM:F12 base medium supplemented with 2% FCS plus 200 ng/ml GDF-8 (R&D Systems, Cat #788-G8). Positive control samples contained the same base medium supplemented with FCS and 1000 ng/ml recombinant human activin A (PeproTech; Cat #120-14) throughout the four-day assay along with Wnt3a (20 ng/ml) on days 1 and 2. Negative control samples contained DMEM:F12 base medium supplemented with FCS, adding Wnt3a on days 1 and 2 but omitting treatment with activin A.
At the conclusion of four-days of culture, assay plates were washed twice with PBS (Invitrogen; Cat #14190), fixed with 4% paraformaldehyde (Alexis Biochemical; Cat #ALX-350-011) at room temperature for 20 minutes, then washed three times with PBS and permeabilized with 0.5% Triton X-100 (Sigma; Cat #T8760-2) for 20 minutes at room temperature. Cells were washed again three times with PBS and blocked with 4% chicken serum (Invitrogen; Cat #16110082) in PBS for 30 minutes at room temperature. Primary antibody (goat anti-human SOX17; R&D Systems; Cat #AF1924) was diluted 1:100 in 4% chicken serum and added to each well for one hour at room temperature. Alexa Fluor 488 conjugated secondary antibody (chicken anti-goat IgG; Molecular Probes; Cat #AZ1467) was diluted 1:200 in PBS and added to each sample well after washing three times with PBS. To counterstain nuclei, 4 μg/ml Hoechst 33342 (Invitrogen; Cat #H3570) was added for ten minutes at room temperature. Plates were washed once with PBS and left in 100 μl/well PBS for imaging.
Imaging was performed using an IN Cell Analyzer 1000 (GE Healthcare) utilizing the 51008bs dichroic for cells stained with Hoechst 33342 and Alexa Fluor 488. Exposure times were optimized from positive control wells and from untreated negative control wells stained with secondary antibody alone. Images from 15 fields per well were acquired to compensate for any cell loss during the bioassay and subsequent staining procedures. Measurements for total cell number and total SOX17 intensity were obtained from each well using IN Cell Developer Toolbox 1.7 (GE Healthcare) software. […]

[3] = Plate 2, compound + EGF, FGF, PDGF-A, VEGF, PDGF-D, muscimol, GDF8
[4] = Plate 2, compound + EGF, FGF, PDGF-A, VEGF, PDGF-D, muscimol, GDF8, positive control Activin A/Wnt3a
[5] = Table 8: hits with greater than 25% activity of the positive control, with GDF-8 and growth factors/agonists

Q: `CN1CCCc2cccc(c2)-c2ncnc(n2)Nc2cccc(c2)CCNC(=O)C1` [Compound 28, 18-Methyl-3,5,7,15,18,28-hexaazatetracyclo[20.3.1.1˜2,6˜0.1˜8,12˜]octacosa-1(26), 2(28), 3,5,8(27), 9,11,22,24-nonaen-16-one] was tested. Which “Cell Number, Average Total Cell Number” value [1, 3] did it give?
A: 7591

Q: What about the “Sox17 Expression, Average Total Intensity” value [1, 3] of the same compound?
A: 8.77E+07

Q: And the “Cell Number, % of positive control” value [1, 4]?
A: 48.0 % of positive control

Q: And the “Sox17 Expression, % of positive control” value [1, 4]?
A: 30.7 % of positive control

Q: What about the “Cell Number, % of positive control” value [1, 5] of the same compound?
A: 48.0 % of positive control

Q: What about the “Sox17 Expression, % of positive control” value [1, 5] of the same compound?
A: 30.7 % of positive control

Q: And the “Sox17 Expression, Average Total Intensity” value [1, 5]?
A: 8.77E+07

Q: What about the “Cell Number: Average Total Cell Number” value [2] of the same compound?
A: 5236

Q: And the “Sox17 Expression: Average Total Intensity” value [2]?
A: 4.03E+07

Q: And the “Cell Number: % of positive control” value [2]?
A: 37.5%

Q: What about the “Sox17 Expression: % of positive control” value [2] of the same compound?
A: 13.1%

Q: `CN1CCN(S(=O)(=O)c2ccc(Nc3cncc(-c4ccc(CN5CCC(O)CC5)s4)n3)cc2)CC1` [Compound 53, 1-({5-[6-({4-[(4-Methylpiperazin-1-yl)sulfonyl]phenyl}amino)pyrazin-2-yl]thiophen-2-yl}methyl)piperidin-4-ol] was tested. Which “Cell Number: Average Total Cell Number” value [2] did it give?
A: 2783

Q: And the “Sox17 Expression: Average Total Intensity” value [2]?
A: 6.36E+06

Q: And the “Cell Number: % of positive control” value [2]?
A: 18.2%

Q: And the “Sox17 Expression: % of positive control” value [2]?
A: 1.9%

Q: Which “Cell Number: Average Total Cell Number” value [2] does the source give for `OCCc1cccc(Nc2ncnc(-c3cccnc3)n2)c1` [Compound 2, 2-{3-[(4-Pyridin-3-yl-1,3,5-triazin-2-yl)amino]phenyl}ethanol] here?
A: 4538

Q: And the “Sox17 Expression: Average Total Intensity” value [2]?
A: 2.95E+07

Q: What about the “Cell Number: % of positive control” value [2] of the same compound?
A: 30.2%

Q: And the “Sox17 Expression: % of positive control” value [2]?
A: 8.6%

Q: How did the “Cell Number: Average Total Cell Number” value [2] turn out when `O=C(O)CCc1cccc(Nc2ncnc(-c3cccnc3)n2)c1` [Compound 1, 3-{3-[(4-Pyridin-3-yl-1,3,5-triazin-2-yl)amino]phenyl}propanoic acid] was run?
A: 3213

Q: What about the “Sox17 Expression: Average Total Intensity” value [2] of the same compound?
A: 6.48E+06

Q: What about the “Cell Number: % of positive control” value [2] of the same compound?
A: 21.0%

Q: What about the “Sox17 Expression: % of positive control” value [2] of the same compound?
A: 1.9%

Q: Which “Cell Number: Average Total Cell Number” value [2] does the source give for `CC(C)(C)OC(=O)NCCc1ccc(Nc2nnc(-c3cccc(CCCO)c3)[nH]2)cc1` [Compound 51, 1,1-Dimethylethyl {2-[4-({5-[3-(3-hydroxypropyl)phenyl]-4H-1,2,4-triazol-3-yl}amino)phenyl]ethyl}carbamate] here?
A: 4289

Q: What about the “Sox17 Expression: Average Total Intensity” value [2] of the same compound?
A: 1.70E+07

Q: What about the “Cell Number: % of positive control” value [2] of the same compound?
A: 28.6%

Q: What about the “Sox17 Expression: % of positive control” value [2] of the same compound?
A: 4.9%

Q: Which results are given for `COc1ccc(CCCO)cc1-c1cnc(Nc2cccc(CNC(=O)OC(C)(C)C)c2)o1` [Compound 52, 1,1-Dimethylethyl {[3-({5-[5-(3-hydroxypropyl)-2-(methyloxy)phenyl]-1,3-oxazol-2-yl}amino)phenyl]methyl}carbamate]?
A: Cell Number: Average Total Cell Number [2]: 4932; Sox17 Expression: Average Total Intensity [2]: 1.99E+07; Cell Number: % of positive control [2]: 32.9%; Sox17 Expression: % of positive control [2]: 5.8%

Q: With `CC(C)(C)OC(=O)NCCCCc1cc(-c2ncnc(Nc3cccc(CO)c3)n2)ccn1` [Compound 4, 1,1-Dimethylethyl {4-[4-(4-{[3-(hydroxymethyl)phenyl]amino}-1,3,5-triazin-2-yl)pyridin-2-yl]butyl}carbamate] as the compound, how does the “Cell Number: Average Total Cell Number” value [2] read?
A: 3163

Q: And the “Sox17 Expression: Average Total Intensity” value [2]?
A: 1.58E+07

Q: What about the “Cell Number: % of positive control” value [2] of the same compound?
A: 20.7%

Q: What about the “Sox17 Expression: % of positive control” value [2] of the same compound?
A: 4.7%

Q: Which “Cell Number: Average Total Cell Number” value [2] does the source give for `COc1ccc(-c2ccnc(Nc3cc(Br)cc(CO)c3)n2)cc1CN(C)CCCNC(=O)OC(C)(C)C` [Compound 5, 1,1-Dimethylethyl {3-[{[5-(2-{[3-bromo-5-(hydroxymethyl)phenyl]amino}pyrimidin-4-yl)-2-(methyloxy)phenyl]methyl}(methyl)amino]propyl}carbamate] here?
A: 3137

Q: And the “Sox17 Expression: Average Total Intensity” value [2]?
A: 1.30E+07

Q: And the “Cell Number: % of positive control” value [2]?
A: 20.5%

Q: What about the “Sox17 Expression: % of positive control” value [2] of the same compound?
A: 3.9%
